# Laboratory results: US12404239B2, “Modulators of BCL6 as ligand directed degraders” (Celgene Corporation, priority 2022, dated 2025)
# Target: T1, BCL6 (Homo sapiens, UniProt P41182)
# T1 construct: HiBiT-tag knocked into endogenous BCL6 locus using CRISPR; endogenous in cells; host or cells: DHL-4_BCL6_HiBiT cells (CRISPR knock-in)
# Assay: BCL6_HiBiT degradation assay (2 h)
# Format: cell-based
# Details: DHL-4_BCL6_HiBiT cells, read-out: YCon (% remaining maximal effect)
# How it was run: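 DHL-4 cells carrying CRISPR HiBiT knock-in at endogenous BCL6, treated 2 h at 37 °C with 10-point 3-fold dilutions from 1-10 μM. BCL6 level read by Nano-Glo HiBiT lytic luminescence normalized to DMSO; four-parameter fit gives degradation EC50 and Yconstant (% remaining at maximal effect).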
row,Percent BCL6 remaining at maximal degradation (Ycon) [%],SMILES
1,> 60,"CCN1C(=O)Cc2cc(Nc3nc(N4CCC(Nc5ccc6c(C7CCC(=O)NC7=O)nn(C)c6c5)CC4)ncc3Cl)ccc21 (stereo not drawn) [Example 89, 3-(6-((1-(5-chloro-4-((1-ethyl-2-oxoindolin-5-yl)amino)pyrimidin-2-yl)piperidin-4-yl)amino)-1-methyl-1H-indazol-3-yl)piperidine-2,6-dione]"
2,< 20,"CN1C(=O)Cc2cc(Nc3nc(N4CC[C@@H](Nc5ccc6c(C7CCC(=O)NC7=O)nn(C)c6c5)[C@H](O)C4)ncc3Cl)ccc21 (stereo partly drawn) [Example 33, 3-(6-(((3R,4R)-1-(5-chloro-4-((1-methyl-2-oxoindolin-5-yl)amino)pyrimidin-2-yl)-3-hydroxypiperidin-4-yl)amino)-1-methyl-1H-indazol-3-yl)piperidine-2,6-dione]"
3,20 to 60,"CO[C@@H]1CN(c2nc(F)c(Cl)c(Nc3ccc4c(c3)CC(=O)N4C)n2)CC[C@H]1Nc1ccc2c(C3(C)CCC(=O)NC3=O)nn(C)c2c1 (stereo partly drawn) [Example 159, 3-(6-(((3R,4R)-1-(5-chloro-4-fluoro-6-((1-methyl-2-oxoindolin-5-yl)amino)pyrimidin-2-yl)-3-methoxypiperidin-4-yl)amino)-1-methyl-1H-indazol-3-yl)-3-methylpiperidine-2,6-dione]"
4,> 60,"CN1C(=O)Cc2cc(Nc3nc(N4CC[C@@H](Nc5ccc6c(C7CCC(=O)NC7=O)nn(C)c6c5)C(F)(F)C4)ncc3Cl)ccc21 (stereo partly drawn) [Example 66, 3-(6-(((R)-1-(5-chloro-4-((1-methyl-2-oxoindolin-5-yl)amino)pyrimidin-2-yl)-3,3-difluoropiperidin-4-yl)amino)-1-methyl-1H-indazol-3-yl)piperidine-2,6-dione]"
5,< 20,"C[C@@H]1CN(c2ncc(Cl)c(Nc3ccc4c(c3)CC(=O)N4CC(C)(F)F)n2)CC[C@H]1Nc1ccc2c(C3CCC(=O)NC3=O)nn(C)c2c1 (stereo partly drawn) [Example 110, 3-(6-(((3R,4R)-1-(5-chloro-4-((1-(2,2-difluoropropyl)-2-oxoindolin-5-yl)amino)pyrimidin-2-yl)-3-methylpiperidin-4-yl)amino)-1-methyl-1H-indazol-3-yl)piperidine-2,6-dione]"
6,< 20,"C[C@@H]1CN(c2ncc(Cl)c(Nc3ccc4c(c3)CC(=O)N4CCC(C)(C)F)n2)CC[C@H]1Nc1ccc2c([C@@H]3CCC(=O)NC3=O)nn(C)c2c1 (single isomer, unassigned) [Example 109]"
7,< 20,"C[C@@H]1CN(c2ncc(Cl)c(Nc3ccc4c(c3)CC(=O)N4C)n2)CC[C@H]1N(C)c1ccc2c(C3CCC(=O)NC3=O)nn(C)c2c1 (stereo partly drawn) [Example 73, 3-(6-(((3R,4R)-1-(5-chloro-4-((1-methyl-2-oxoindolin-5-yl)amino)pyrimidin-2-yl)-3-methylpiperidin-4-yl)(methyl)amino)-1-methyl-1H-indazol-3-yl)piperidine-2,6-dione]"
8,20 to 60,"CO[C@@H]1CN(c2ncc(Cl)c(Nc3ccc4c(c3)CC(=O)N4C)n2)CC[C@H]1Nc1ccc2c(N3CCC(=O)NC3=O)nn(C)c2c1 [Example 156, 1-(6-(((3R,4R)-1-(5-chloro-4-((1-methyl-2-oxoindolin-5-yl)amino)pyrimidin-2-yl)-3-methoxypiperidin-4-yl)amino)-1-methyl-1H-indazol-3-yl) dihydropyrimidine-2,4(1H,3H)-dione]"
9,< 20,"C[C@@H]1CN(c2ncc(Cl)c(Nc3cc4c(cc3F)N(C)C(=O)C4)n2)CC[C@H]1Nc1ccc2c(C3CCC(=O)NC3=O)nn(C)c2c1 (stereo partly drawn) [Example 92, 3-(6-(((3R,4R)-1-(5-chloro-4-((6-fluoro-1-methyl-2-oxoindolin-5-yl)amino)pyrimidin-2-yl)-3-methylpiperidin-4-yl)amino)-1-methyl-1H-indazol-3-yl)piperidine-2,6-dione]"
